# US20220380319A1 (Bial - R&D Investments, S.A., priority 2019, published 2022)
# What was measured:
# acid ceramidase = biological target: T1, acid ceramidase (Homo sapiens, UniProt Q13510); experiment: Acid ceramidase inhibition, biochemical fluorescent assay with cell lysates overexpressing acid ceramidase, substrate Rbm14-12; conditions: substrate Rbm14-12 6.3 μM
# T1 construct: Cell lysates overexpressing acid ceramidase were used as the enzyme source; expressed in transfected cells
# T1 sequence (Q13510 22-395): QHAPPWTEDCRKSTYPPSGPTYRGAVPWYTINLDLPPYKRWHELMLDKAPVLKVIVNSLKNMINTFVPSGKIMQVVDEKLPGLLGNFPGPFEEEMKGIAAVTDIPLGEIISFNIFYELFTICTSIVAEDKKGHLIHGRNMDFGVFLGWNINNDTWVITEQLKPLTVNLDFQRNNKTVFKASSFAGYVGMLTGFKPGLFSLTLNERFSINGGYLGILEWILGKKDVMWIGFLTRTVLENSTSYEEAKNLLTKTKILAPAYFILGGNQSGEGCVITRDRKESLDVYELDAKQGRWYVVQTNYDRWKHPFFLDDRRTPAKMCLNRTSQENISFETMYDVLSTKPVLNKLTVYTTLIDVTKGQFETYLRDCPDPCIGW
# Summary of the method: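 Lysate of cells overexpressing acid ceramidase (10 μg protein) preincubated with compound dose series 1 hr at RT in 25 mM NaAC, 100 mM NaCl, pH 4.5, then reacted 1 hr with 6.3 μM Rbm14-12. Stopped with NaIO4/glycine buffer pH 10.6, fluorescence ex360/em446; IC50 by four-parameter fit.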
# [1] = Compound solubility in water
# [2] = pH 4.5, 1 hr preincubation at RT
Structure (SMILES),IC50 (acid ceramidase; [2]) [nM],solubility [1] [µg/mL],IC50 (acid ceramidase; pH 4.5) [nM]
"COc1nc2c(C#N)cccc2n1C(=O)NCCCCc1ccccc1 [Example 138, 4-Cyano-2-methoxy-N-(4-phenylbutyl)-1H-benzo[d]imidazole-1-carboxamide]",< 200,0.3,–
"COc1nc2c(C#N)cccc2n1C(=O)NCC1CCC(F)(F)CC1 [Example 139, 4-Cyano-N-((4,4-difluorocyclohexyl)methyl)-2-methoxy-1H-benzo[d]imidazole-1-carboxamide]",< 200,9,–
"COc1nc2c(C#N)cccc2n1C(=O)NCC#CC(C)C [Example 140, 4-Cyano-2-methoxy-N-(4-methylpent-2-ynyl)-1H-benzo[d]imidazole-1-carboxamide]",< 200,10,–
"O=C(NCCCC1CC1)n1cnc2c(N3CCOCC3)cccc21 [Example 141, N-(3-Cyclopropylpropyl)-4-morpholino-1H-benzo[d]imidazole-1-carboxamide]",< 200,15,–
"O=C(NCCCc1ccccc1)n1cnc2c(N3CCOCC3)cccc21 [Example 142, 4-Morpholino-N-(3-phenylpropyl)-1H-benzo[d]imidazole-1-carboxamide]",< 200,1.4,–
"CC(C)CCNC(=O)n1cnc2c(N3CCC(F)(F)CC3)cccc21 [Example 143, 4-(4,4-Difluoropiperidin-1-yl)-N-isopentyl-1H-benzo[d]imidazole-1-carboxamide]",200 to 1000,2,–
"COc1nc2c(N3CCC(F)(F)CC3)cccc2n1C(=O)NCCC(C)C [Example 144, 4-(4,4-Difluoropiperidin-1-yl)-N-isopentyl-2-methoxy-1H-benzo[d]imidazole-1-carboxamide]",> 1000,1.2,–
"COc1nc2c(N3CCN(C)CC3)cccc2n1C(=O)NCCC(C)C [Example 145, N-iso-Pentyl-2-methoxy-4-(4-methylpiperazin-1-yl)-1H-benzo[d]imidazole-1-carboxamide]",> 1000,46,–
"COc1nc2c(N3CCOCC3)cccc2n1C(=O)NCCC(C)C [Example 146, N-iso-Pentyl-2-methoxy-4-morpholino-1H-benzo[d]imidazole-1-carboxamide]",> 1000,17,–
"CC(C)CCNC(=O)n1cnc2c(N3CCN(C4CC4)CC3)cccc21 [Example 147, 4-(4-Cyclopropylpiperazin-1-yl)-N-iso-pentyl-1H-benzo[d]imidazole-1-carboxamide]",200 to 1000,14,–
"O=C(NC1CCCCC1)n1cnc2c(N3CCN(C4CC4)CC3)cccc21 [Example 148, N-Cyclohexyl-4-(4-cyclopropylpiperazin-1-yl)-1H-benzo[d]imidazole-1-carboxamide]",> 1000,3,–
"O=C(NC1CCCCC1)n1cnc2c(N3CCOCC3)cccc21 [Example 149, N-Cyclohexyl-4-morpholino-1H-benzo[d]imidazole-1-carboxamide]",> 1000,15,–
"O=C(NCCCc1ccccc1)n1cnc2c(N3CCN(C4CC4)CC3)cccc21 [Example 150, 4-(4-Cyclopropylpiperazin-1-yl)-N-(3-phenylpropyl)-1H-benzo[d]imidazole-1-carboxamide]",< 200,1.5,–
"CC(C)CCNC(=O)n1cnc2c(N3CCCCC3)cccc21 [Example 151, N-iso-Pentyl-4-(piperidin-1-yl)-1H-benzo[d]imidazole-1-carboxamide]",200 to 1000,2,–
"CC(C)CCNC(=O)n1cnc2c(N3CCN(CC4CC4)CC3)cccc21 [Example 152, 4-(4-(Cyclopropylmethyl)piperazin-1-yl)-N-iso-pentyl-1H-benzo[d]imidazole-1-carboxamide]",200 to 1000,20,–
"CC(C)CCNC(=O)n1cnc2c(N3CCN(CC(F)(F)F)CC3)cccc21 [Example 153, N-iso-Pentyl-4-(4-(2,2,2-trifluoroethyl)piperazin-1-yl)-1H-benzo[d]imidazole-1-carboxamide]",200 to 1000,10,–
"CC(C)CCNC(=O)n1cnc2c(N3CCN(C4COC4)CC3)cccc21 [Example 154, N-iso-Pentyl-4-(4-(oxetan-3-yl)piperazin-1-yl)-1H-benzo[d]imidazole-1-carboxamide]",200 to 1000,30,–
"CC(C)CCNC(=O)n1cnc2c(N3CCN(C4CCOCC4)CC3)cccc21 [Example 155, N-iso-Pentyl-4-(4-(tetrahydro-2H-pyran-4-yl)-piperazin-1-yl)-1H-benzo[d]imidazole-1-carboxamide]",200 to 1000,30,–
"CC(C)CCNC(=O)n1cnc2c(N3CCN(c4cccc5cncn45)CC3)cccc21 [Example 156, 4-(4-(Imidazo[1,5-a]pyridin-5-yl)piperazin-1-yl)-N-iso-pentyl-1H-benzo[d]imidazole-1-carboxamide]",200 to 1000,0.2,–
"CC(C)CCNC(=O)n1cnc2c(N3CCN(C)C4(CC4)C3)cccc21 [Example 157, N-iso-Pentyl-4-(4-methyl-4,7-diazaspiro[2.5]-octan-7-yl)-1H-benzo[d]imidazole-1-carboxamide]",200 to 1000,27,–
"CC(C)CCNC(=O)n1cnc2c(N3CCN4CCCC4C3)cccc21 (centres unmarked) [Example 158, 4-(Hexahydropyrrolo[1,2-a]pyrazin-2(1H)-yl)-N-iso-pentyl-1H-benzo[d]imidazole-1-carboxamide]",200 to 1000,17,–
"CC(C)CCNC(=O)n1cnc2c(N3CC4CC3CN4C)cccc21 (centres unmarked) [Example 159, N-iso-Pentyl-4-(5-methyl-2,5-diazabicyclo[2.2.1]heptan-2-yl)-1H-benzo[d]imidazole-1-carboxamide]",200 to 1000,33,–
"CC(C)CCNC(=O)n1cnc2c(N3CC4CC(C3)N4C)cccc21 [Example 160, N-iso-Pentyl-4-(6-methyl-3,6-diazabicyclo[3.1.1]-heptan-3-yl)-1H-benzo[d]imidazole-1-carboxamide]",200 to 1000,35,–
"CC(C)CCNC(=O)n1cnc2c(N3CC4CCC(C3)N4C)cccc21 [Example 161, N-iso-Pentyl-4-(8-methyl-3,8-diazabicyclo[3.2.1]-octan-3-yl)-1H-benzo[d]imidazole-1-carboxamide]",–,35,200 to 1000
"CC(C)CCNC(=O)n1cnc2c(N3CCN(C)CC3=O)cccc21 [Example 162, N-iso-Pentyl-4-(4-methyl-2-oxopiperazin-1-yl)-1H-benzo[d]imidazole-1-carboxamide]",–,18,> 1000
"CC(C)CCNC(=O)n1cnc2c(N3CCN(C)C(=O)C3)cccc21 [Example 163, N-iso-Pentyl-4-(4-methyl-3-oxopiperazin-1-yl)-1H-benzo[d]imidazole-1-carboxamide]",–,14,200 to 1000
"CC(C)CCNC(=O)n1cnc2c(N3CC(C)(C#N)C3)cccc21 [Example 165, 4-(3-Cyano-3-methylazetidin-1-yl)-N-isopentyl-1H-benzo[d]imidazole-1-carboxamide]",–,1,200 to 1000
"CC(C)CCNC(=O)n1cnc2c(N3C[C@H]4C[C@@H]3CO4)cccc21 [Example 166, 4-((1R,4R)-2-Oxa-5-azabicyclo[2.2.1]heptan-5-yl)-N-iso-pentyl-1H-benzo[d]imidazole-1-carboxamide]",–,12,200 to 1000
